Experimental data: the COVID Moonshot data (paper PMC7615835)
“And” between values parts separate entries of the source, which are not always exact repeats. Equal entries are not always repeated.

Target: SARS-CoV-2 Main Protease (SARS-CoV-2) (UniProt P0DTD1)

| SMILES | IC50 |
| --- | --- |
| COc1ccccc1OCCNC(=O)c1cc(N)cc2ccccc12 | > 99.5 µM |
| CS(=O)(=O)Nc1ccc(Cl)cc1C(=O)N1CCC(C2CCNC2)CC1 (centres undefined) | > 99.5 µM |
| CCOC(=O)c1c(COc2cc(Cl)cc(CC(=O)Nc3cnccc3C)c2)oc2ccccc12 | > 99.5 µM |
| O=C(Nc1c[nH]c(=O)c2ccccc12)C1CCOc2ccc(Cl)cc21 (centres undefined) | > 99.5 µM |
| O=c1[nH]c(Cc2cccc(S(F)(F)(F)(F)F)c2)nc2cnccc12 | > 99.5 µM |
| O=C(Cc1cccc(C(F)(F)F)c1)Nc1cncc2ccccc12 | 6.94 µM |
| CCOc1ccccc1CNc1cc(Cl)cc(CC(=O)Nc2cncc3ccccc23)c1 | 2.07 µM |
| O=C(Cc1cccc(Cl)c1)Nc1cncc2ccc(OCCN3CCCC3)cc12 | 1.13 µM |
| COc1ccc2c(c1)CN(C(=O)CCl)C(c1ccccc1)C2 (centres undefined) | 3.74 µM |
| N#CCC1(CS(=O)(=O)N2Cc3ccc(Cl)cc3C(C(=O)Nc3cncc4ccccc34)C2)CC1 (centres undefined) | 0.128 µM |
| CC(C)(C)c1ccc(-c2nnc(Sc3cnc([N+](=O)[O-])s3)o2)cc1 | 7.29 µM and 2.38 µM |
| O=C(NCC(=O)N1CCCC1c1nc2ccccc2[nH]1)C1CCCC1 (centres undefined) | > 99.5 µM |
| COc1ccccc1CC(=O)Nc1cncc2ccccc12 | 35 µM |
| O=C(Cc1cc(Cl)cc(NC2CCN(Cc3ccccc3)CC2)c1)Nc1cncc2ccccc12 | 5.93 µM |
| CN(C(=O)c1ccco1)C(C(=O)NCCc1cccc(F)c1)c1cccnc1 (centres undefined) | > 99.5 µM |
| COc1ccc2c(NC(=O)C3CCOc4ccc(Cl)cc43)[nH]nc2c1 (centres undefined) | > 99.5 µM |
| Cc1nc2cc(NC(=O)Cn3cnc4c(cnn4C)c3=O)ccc2o1 | > 99.5 µM |
| Cc1ccncc1NC(=O)Nc1cccc(Cl)c1 | 68 µM and 61 µM |
| Clc1ccc2c(c1)C1(CCO2)CCN(c2cncc3cccc(Cl)c23)C1 (centres undefined) | > 99.5 µM |
| CC(C)(C)c1ccc(N(C(=O)c2cocn2)C(C(=O)NCCc2cccc(F)c2)c2cnccn2)cc1 (centres undefined) | 1.21 µM |
| COC1(CS(=O)(=O)N2Cc3ccc(Cl)cc3C3(CCN(c4cncc5ccccc45)C3=O)C2)CC1 (centres undefined) | 0.356 µM |
| O=C(Cn1cn[nH]c1=O)NC1CCCCCC1c1ccccc1C(F)(F)F (centres undefined) | > 99.5 µM |
| CCCc1cc2c(cc1S(=O)(=O)N1CCN(c3cccc(Cl)c3Cl)CC1)OCO2 | > 99.5 µM |
| Cn1cnc(C(=O)N(c2ccc(C(C)(C)C)cc2)C(C(=O)NCCc2cccc(F)c2)c2cccnc2)cc1=O (centres undefined) | > 99.5 µM |
| CCCCCC(=O)SCCNC(=O)CCNC(=O)[C@H](O)C(C)(C)COP(=O)(O)OP(=O)(O)OC[C@H]1O[C@@H](n2cnc3c(N)ncnc32)[C@H](O)[C@@H]1OP(=O)(O)O (stereo in doubt) | 46.1 µM and 85.1 µM |

| SMILES | IC50 |
| --- | --- |
| Cc1cnc(Nc2cc(Cl)cc(CC(=O)Nc3cncc4ccccc34)c2)c([N+](=O)[O-])c1 | 1.86 µM |
| C=CC(=O)N(c1ccc(C2(C)CC2)cc1)C(C(=O)Nc1ccc(Br)cc1)c1cccnc1 (centres undefined) | 83.7 µM and 81.2 µM |
| O=C(Cc1cc(Cl)cc(Nc2ccc(Cl)c(Cl)c2)c1)Nc1cncc2ccccc12 | 2.28 µM |
| N#CC1(CS(=O)(=O)N2Cc3ccc(Cl)cc3[C@@H](C(=O)Nc3cncc4ccccc34)C2)CCOCC1 (stereo in doubt) | 15.2 µM |
| Cc1cc(C)nc(NC2CCN(C(=O)CCl)CC2)n1 | 27.6 µM |
| COc1ncc(NC(=O)Cc2cccc(Cl)c2)c2ccccc12 | > 99.5 µM |
| C=CC(=O)N1CCN(S(=O)(=O)c2ccccc2)CC1 | > 99.5 µM |
| CC(C)(C)c1ccc(N(C(=O)c2ccc(Cl)o2)C(C(=O)NCCc2cccc(F)c2)c2cccnc2)cc1 (centres undefined) | 0.315 µM |
| Cc1nn(C)c2nc(Cl)cc(NNC(=O)c3ccnc4[nH]nnc34)c12 | > 99.5 µM |
| O=C(Cc1cc(Cl)cc(Nc2ccccc2Oc2ccccc2)c1)Nc1cncc2ccccc12 | 2.19 µM |
| O=C(NNc1cc(O)nc2ncccc12)c1ccc2[nH]ccc2c1 | > 99.5 µM |
| Cc1ccncc1NC(=O)CN1C(=O)COc2ccc(Cl)cc21 | 59.9 µM |
| CN(C1CC1)S(=O)(=O)N1Cc2ccc(Cl)cc2C(C(=O)Nc2cncc3ccccc23)C1 (centres undefined) | 0.104 µM |
| COc1cc(Br)ccc1Nc1cc(Cl)cc(CC(=O)Nc2cncc3ccccc23)c1 | 1.39 µM |
| O=C(NCCc1cccc(F)c1)C(c1cccnc1)N(Cc1cc(C(F)(F)F)cs1)C(=O)c1ccco1 (centres undefined) | > 99.5 µM |
| CC1(NC(=O)Cc2cccc(Cl)c2)CCNC1=O (centres undefined) | > 99.5 µM |
| CC(C)(COP(=O)(O)OP(=O)(O)OC[C@H]1O[C@@H](n2cnc3c(N)ncnc32)[C@H](O)[C@@H]1OP(=O)(O)O)[C@@H](O)C(=O)NCCC(=O)NCCSC(=O)CCC(=O)O (stereo in doubt) | > 99 µM |
| O=C(Cn1nnc2ccccc21)N(Cc1ccsc1)c1ccc(N2CCOCC2)cc1 | 11.6 µM |
| C=CC(=O)N(c1ccc(C(C)(C)C)cc1)C(C(=O)NC(C)(C)C)c1cncc(Cl)c1 (centres undefined) | 65.6 µM |
| CNC(=O)CN1CC(C(=O)Nc2cncc3c2CCCC3)c2cc(Cl)ccc2C1=O (centres undefined) | 0.448 µM |
| Cc1cc(Cl)cc(CC2CCN(C(=O)CCl)CC2)c1 | 3.57 µM |
| CC(C)c1nc(CN(C)c2cc(Cl)cc(CC(=O)Nc3cncc4ccccc34)c2)cs1 | 2.63 µM |
| O=C(Nc1cnn2ccccc12)C1CCS(=O)(=O)c2ccc(Cl)cc21 (centres undefined) | 3.89 µM |
| Cc1ccc(S(=O)(=O)N2CCN(C(=O)CCl)C[C@H]2C(=O)NC2CCCCC2)cc1 (stereo in doubt) | 4.48 µM |
| COCc1csc(-c2nnc(-c3sc(-c4ccccc4)nc3C)o2)c1 | > 99.5 µM |

| SMILES | IC50 |
| --- | --- |
| O=C(Cc1cc(Cl)cc(Nc2ccccc2-c2ccccc2)c1)Nc1cncc2ccccc12 | 1.86 µM |
| O=C(Nc1cncc2ccccc12)C1CCOc2c(OCc3cccnc3)cc(Cl)cc21 (centres undefined) | 24.9 µM and > 9.95 µM |
| CN(C)C(=O)CN1Cc2ccc(Cl)cc2C(C(=O)Nc2cncc3ccccc23)C1 (centres undefined) | 0.896 µM |
| COC(=O)c1ccc(-c2cc(Cl)cc(CC(=O)Nc3cnccc3C)c2)c(OC)c1 | 9.62 µM and 16.8 µM |
| Cc1cc(C)n(C2CCCN(C(=O)c3c[nH]c4ncccc34)C2)n1 (centres undefined) | > 99.5 µM |
| N#CC1(CS(=O)(=O)N2Cc3ccc(Cl)cc3C3(CCN(c4cncc5ccc(OCCN6CCOCC6)cc45)C3=O)C2)CC1 (centres undefined) | 0.187 µM |
| Nc1nn(C(=O)Cc2cccc(Cl)c2)c2cccc(F)c12 | > 99.5 µM |
| O=C(Nc1nn2cnnc2s1)c1csc(-c2ccccc2)n1 | > 99.5 µM |
| Cc1ccc(S(=O)(=O)N2CCN(C(=O)CCl)C[C@H]2C(=O)NCCc2ccccc2)cc1 (stereo in doubt) | 11.8 µM |
| CCCCn1nnnc1CNC1CCc2nc(C(C)C)nn2C1 (centres undefined) | > 99.5 µM |
| COc1c(C(=O)N(c2ccc(C(C)(C)C)cc2)C(C(=O)NCCc2cccc(F)c2)c2cccnc2)[nH]c(=O)[nH]c1=O (centres undefined) | > 99.5 µM |
| CCOC(=O)c1cc(-c2ccccc2)sc1NC(=O)Cc1csc(-c2ccccc2)n1 | 4.66 µM |
| CC(C)(C)c1ccc(N(C(=O)c2cc(=O)[nH][nH]2)C(C(=O)NCCc2cccc(F)c2)c2cccnc2)cc1 (centres undefined) | 39.7 µM |
| N#CC1(CS(=O)(=O)N2Cc3ccc(Cl)cc3C3(CCN(c4cncc5ccccc45)C3=O)C2)CCOCC1 (centres undefined) | 0.338 µM |
| Cc1c(C(=O)N2CCC(C3CCNC3)CC2)cccc1-c1ccccn1 (centres undefined) | > 99.5 µM |
| Cc1ccn2cnnc2c1NC(=O)C1CCOc2ccc(Cl)cc21 (centres undefined) | > 99.5 µM |
| O=c1[nH]c2ccc(-c3csc(NCc4ccc(F)cc4)n3)cc2o1 | > 99.5 µM |
| O=C(Cc1cccc(Cl)c1)Nc1cncc2c1OCCC2 | 10.1 µM and 14 µM |
| CN(Cc1ccccc1Nc1cc(Cl)cc(CC(=O)Nc2cncc3ccccc23)c1)C1CCCCC1 | 2.22 µM |
| Cc1noc(COc2cc(Cl)cc(CC(=O)Nc3cnccc3C)c2)n1 | 23.9 µM |
| O=C(Cc1cc(Cl)cc(N2CCc3c([nH]c4ccccc34)C2)c1)Nc1cncc2ccccc12 | 2.02 µM |
| CNC(=O)CN1C[C@H](C(=O)Nc2cncc3cccc(Cl)c23)c2cc(Cl)ccc2C1=O (stereo in doubt) | 0.0964 µM |
| Cc1ccc(Br)nc1C(=O)NC(C)c1nnc2c(=O)[nH]ccn12 (centres undefined) | > 99.5 µM |
| CC(C)n1nccc1C(=O)N1Cc2ccc(Cl)cc2C2(CCN(c3cncc4ccccc34)C2=O)C1 (centres undefined) | 0.268 µM |
| CC(C)(C)c1ccc(N(C(=O)c2ccccc2)C(C(=O)NCCc2cccc(F)c2)c2cccnc2)cc1 (centres undefined) | > 99.5 µM |

| SMILES | IC50 |
| --- | --- |
| O=C(c1cc(=O)[nH]c2ccccc12)N1CCN(Cc2cccc(Cl)c2)CC1 | 4.57 µM |
| O=C(Cc1cc(Cl)cc(Nc2nc3c(Cl)cccc3s2)c1)Nc1cncc2ccccc12 | 2.11 µM |
| O=C(NCCc1cccc(F)c1)C(c1cccnc1)N(C(=O)c1ccco1)c1ccc(-c2n[nH]c3c2COCC3)cc1 (centres undefined) | 43 µM |
| CC(=O)NCC1(C(=O)Nc2cncc3ccccc23)CCOc2ccc(Cl)cc21 (centres undefined) | 3.34 µM |
| Cc1ccncc1NC(=O)Cc1cc(Cl)cc(OCc2nnc(C3CCCCC3)o2)c1 | 20.6 µM |
| Cc1ccncc1CC(=O)Nc1cccc(Cl)c1 | 29.9 µM |
| Cc1c(C(=O)CCl)c2ccccn2c1C(=O)c1ccc(F)cc1 | 0.719 µM |
| Nc1nn(C(=O)Cc2cccc(Cl)c2)c2cccnc12 | > 99.5 µM |
| Cc1ccncc1NC(=O)Cc1cc(Cl)cc(OCCN2CCOCC2C)c1 (centres undefined) | > 99.5 µM |
| Cc1ccncc1NC(=O)C(C)c1cccc(C#N)c1 (centres undefined) | 55.2 µM and 54.7 µM |
| CN1C(=O)CC(O)(C(=O)Nc2cncc3ccccc23)c2cc(Cl)ccc21 (centres undefined) | 20.7 µM |
| O=C(Cc1cc(Cl)cc(N2CCN(c3ncccn3)CC2)c1)Nc1cncc2ccccc12 | 2.52 µM |
| CCc1nc(-c2nnc[nH]2)sc1C(=O)N(c1ccc(C(C)(C)C)cc1)C(C(=O)NCCc1cccc(F)c1)c1cccnc1 (centres undefined) | > 99.5 µM |
| O=C(Cc1cc(Cl)cc(OC2CC(=O)N2)c1)Nc1cc(=O)[nH]c2ccccc12 (centres undefined) | 83.3 µM |
| O=C(Nc1n[nH]c2ccnc(Br)c12)C1CCOc2ccc(Cl)cc21 (centres undefined) | > 99.5 µM |
| O=C(Cc1cc(Cl)cc(Nc2ccc(Br)c([N+](=O)[O-])c2)c1)Nc1cncc2ccccc12 | 2.06 µM |
| O=C(Cc1cc(Cl)cc(Nc2cc(Cl)cc([N+](=O)[O-])c2O)c1)Nc1cncc2ccccc12 | 4.69 µM |
| O=C(NCCc1cccc(F)c1)C(c1cccnc1)N(C(=O)c1cocn1)c1ccc(C2(O)COC2)cc1 (centres undefined) | > 99.5 µM |
| O=C(NCCc1cccc(F)c1)C(c1cccnc1)N(C(=O)c1cocn1)c1ccccc1 (centres undefined) | 89.2 µM |
| C=CC(=O)N(c1ccc(C(C)(C)C)cc1)C(C(=O)NCc1cccnc1)c1cccnc1 (centres undefined) | 49.9 µM |
| O=C(Cn1nnc2ccccc21)Nc1cccc(Cl)c1 | > 99.5 µM |
| CC(C)(C)c1ccc(N(C(=O)c2ccncc2)C(C(=O)NCCc2cccc(F)c2)c2cccnc2)cc1 (centres undefined) | > 99.5 µM |
| CC(C(=O)Nc1cncnc1)c1ccccc1 (centres undefined) | > 99.5 µM |
| CC(=O)N(CC(=O)Nc1ccc(F)c(Cl)c1)c1cccc(Cl)c1 | > 99.5 µM |
